Measurements taken from US20240016766A1, “PHARMACEUTICAL COMPOSITION FOR TREATMENT OF INNER EAR DISORDERS THROUGH LOCAL ADMINISTRATION IN THE TYMPANIC AREA” (priority 2020, published 2024).

What was measured:
[1] = Pharmacokinetics after single ear canal administration: concentration in perilymph (Examples 1 and 2)
Description: Pharmacokinetics study of different active agents has been conducted with ready-to-use formulations. The pharmacokinetic study consists of a single administration up to the eardrum on male Long Evans rats and assessment of the level of the active agent in middle ear area (tympanic bulla) and in the inner ear area (perilymph).
2. Route of administration: 20 μl of each formulation are delivered in the ear canal of one animal in one administration.
3. Animals: 6 male rats Long Evans, were obtained from Janvier Labs, Le Genest St Isle, 53941 St Berthevin, France. Acclimation Animals arrived on site at least 5 days before the experiment to allow optimal acclimation. Selection Animal health was examined on the day before starting the study, to ensure that only animals in good health were selected to enter the testing procedures. Identification: At the beginning of the study, animals were identified with a number on the tail. Each cage was labelled with a record card, indicating the test compound, the dose of administration and the identification of the animals Housing: Rats were housed in cages (1354G (Tecniplast, Lyon), dim 595*380 mm (w*d)), in a room where the air was continuously filtered, thereby avoiding any contamination. During experiments, rats were caged in groups of five (300-400 g) at a constant temperature with a day/night cycle of 12/12 hours. Animals received water (autoclaved water) and nutrition (ref A04C10), ad libitum.
4. Treatment and study design: The treatment was delivered into the ear canal and on the tympanic membrane on anesthetized rats (2.5% isoflurane). The exact volume of administration was determined during this first test and delivered (volume of 20 μL). Both ears were treated. After administration, the animal was kept on a heating pad for 5 minutes, positioned on its side to allow the compound to diffuse through the tympanic membrane. Then the second ear were administered, and the animal kept on its side for 5 minutes. Finally, the animal was kept on a ventral position until its recovery from anesthesia. The diffusion trough the tympanic membrane and into the inner ear and was assessed with the dosage of the perilymph sampling. Tympanic bulla sampling technique: After sacrifice of the rats, the right tympanic bulla was collected from each animal and transferred to an Eppendorf tube, weighed individually and frozen at −20° C. until analysis. Perilymph sampling technique: After sacrifice of the rats and extraction of the tympanic bulla from the left ear, a volume of about 1 μL of cochlear fluid at the base of the cochlea was sampled ex vivo. Tubes were weighed individually before and after sampling, and immediately transferred to a −20° C. freezer.
5. Bioanalysis: The concentration of each compound in the perilymph and in the tympanic bulla was quantified using an exploratory LC/MS-MS assay method in outsourcing laboratory (Eurofins Vergeze, France). The concentration of amitriptyline in plasma was assessed.
The same materials and methods were used as in Example 1.

[2] = Further pharmacokinetics study, apricot oil formulations: concentration in perilymph (Example 3); type: in vivo, male Long Evans rats
Description: Apricot oil is present in the formulation as a solubilizing agent. α-(-)-bisabolol is used as diffusing agent. […] 2. […] 3. […] 4. […] Both ears were treated. […] 5. […]

[3] = Pharmacokinetics after single ear canal administration: concentration in plasma; type: in vivo, male Long Evans rats; conditions: from 1 to 8 hours after administration
Description: 2. […] 3. […] Animals received water (autoclaved water) and nutrition (ref […]), ad libitum. 4. […] Both ears were treated. […] Perilymph sampling technique: […] […] 5. […] The concentration of amitriptyline in plasma was assessed.

[4] = after 8 hours from the administration onto the tympanic membrane, Example 1 conclusion
[5] = after 8 hours from the administration onto the tympanic membrane, Example 3 conclusion

SMILES	Presence within the inner ear (perilymph) ([1]; rat, in vivo)	Presence within the inner ear (perilymph) [1, 4]	other results
O=c1cc(-c2ccccc2)oc2c(O)c(O)ccc12 [7,8-dihydroxyflavone]	present		Presence within the inner ear (perilymph) ([2]; rat, in vivo): present
CN(C)CCC=C1c2ccccc2CCc2ccccc21 [amitriptyline]	present		Presence in plasma [3]: present in plasma
C=C(C)[C@@H]1CCC(C)=C[C@H]1c1c(O)cc(CCCCC)cc1O [cannabidiol]		present	
C[C@@H]1C[C@H]2[C@@H]3CCC4=CC(=O)C=C[C@]4(C)[C@@]3(F)[C@@H](O)C[C@]2(C)[C@@]1(O)C(=O)CO [dexamethasone]	present		Presence within the inner ear (perilymph) [2, 5]: present
COc1ccc2c(c1)[C@]13CCCC[C@@H]1[C@H](C2)N(C)CC3 [dextromethorphan]		present	
CC1CCCCC1(c1cccs1)N1CCCCC1 (stereo not shown) [gacyclidine]		present	
CCN(CC)CC(=O)Nc1c(C)cccc1C [lidocaine]			Presence within the inner ear (perilymph) [2, 5]: present
CCCN[C@H]1CCc2nc(N)sc2C1 [pramipexole]	present		
CCCN(CCC)CCc1cccc2c1CC(=O)N2 [ropinirole]	present		
CC(C)c1cc2[nH]c(=O)n(NS(C)(=O)=O)c(=O)c2cc1-c1ccnn1C [selurampanel]		present	
